{"source": "ChEMBL document CHEMBL1146416", "about": "“A new glycoside antimicrobial agent from Persoonia linearis x pinifolia” (J Nat Prod, 1997)", "type_in_all_cases": "functional, organism-based", "key": {"[1]": {"tested_on": "Phytophthora cinnamomi", "assay": "Antimicrobial activity against Phytophthora cinnamomi RSC290 at 6.25 ug/disk after 18 to 24 hrs"}, "[2]": {"tested_on": "Bacillus subtilis", "assay": "Antimicrobial activity against Bacillus subtilis RSC1 at <12.5 ug/disk after 24 hrs"}, "[3]": {"tested_on": "Escherichia coli", "assay": "Antimicrobial activity against Escherichia coli RSC2 at 6.25 ug/disk after 18 to 24 hrs"}}, "note": "Active and inactive are the calls of the source. The rule behind the calls is not given here."}
{"molecule": "C=C(C(=O)OC[C@H]1O[C@@H](Oc2ccc(O)cc2)[C@H](O)[C@@H](O)[C@@H]1O)[C@@H](O)CO", "values": [{"measurement": "Activity", "setting": "[1]", "result": "Active"}, {"measurement": "Activity", "setting": "[2]", "result": "inactive"}, {"measurement": "Activity", "setting": "[3]", "result": "Active"}]}
